Source: publication PMC8038955, “Antimicrobial D-amino acid oxidase-derived peptides specify gut microbiota” (Cellular and Molecular Life Sciences: CMLS, 2021)
Converted amounts (≈) assume the structure as drawn. Like-named read-outs stand apart in the source and are kept apart here. Where a SMILES comes first, the peptide text is derived from it. Bridges are numbered along the chain shown (N, C = ends). Where no end group is shown, it is not given here. [ ]: non-standard residue; d: D form. The star is where a group is joined. X1 = CC[C@H](C)CCCCC(=O)*; Dab = NCC[C@H](N)C(=O)O

What was measured:
[1] = test system: Enterococcus faecalis ATCC 29212; experiment: microbe, parasite or virus in culture; format: cell-based
Method: (§1) MIC (Minimum Inhibitory Concentration) analyses were performed on Gram-positive and Gram-negative bacteria by a broth microdilution method previously described, with minor modifications. In details, assays were carried out in Nutrient Broth 0.5× (Difco, Detroit, MI, USA) using sterile 96-well polypropylene microtiter plates (cat. 3879, Costar Corp., Cambridge, MA, USA). Bacterial strains were grown in Luria–Bertani (LB) medium overnight at 37 °C and then diluted in nutrient broth at a final concentration of ~ 5 × 10^5 CFU/mL per well. […] Peptide concentrations were determined by spectrophotometric analysis using the extinction coefficients calculated by the ProtParam tool (http://web.expasy.org/protparam/). Twofold serial dilutions of peptides were carried out in the test wells (0.2–100 μM concentration range). Plates were incubated overnight at 37 °C. MIC value was taken as the lowest concentration at which growth was inhibited. Three independent experiments were performed for each MIC value. The peptide antibiotic polymyxin B and vancomycin (Sigma, St. Louis, MO) were tested as control. MIC values were measured on: Pseudomonas aeruginosa PAO1, Acinetobacter baumanii ATCC 17878, Escherichia coli ATCC 25922, Salmonella typhimurium ATCC 14028, Salmonella enteritidis 706 RIVM (kindly provided by Prof. E. Veldhuizen, Utrecht University, Holland), Staphylococcus aureus ATCC 6538P, and Enterococcus faecalis ATCC 29212.

[2] = test system: L. casei ATCC 393; experiment: Lactobacilli susceptibility, broth microdilution (ISO 10932/IDF 233); format: cell-based, Lactobacillus casei; conditions: Lacticaseibacillus casei
Method: (§2) To assess the effect of antibacterial peptides on lactobacilli, Lactobacillus acidophilus ATCC 4356, Lactobacillus casei ATCC 393, Lactobacillus fermentum ATCC 14931, and Lactobacillus rhamnosus ATCC 7469 strains (from American Type Culture Collection) were used. Before performing the test, cultures were streaked on Lactobacilli MRS agar (MRS) and incubated for 24 h at 37 °C in an anaerobic chamber (BD Difco, Detroit, MI, USA). Antibacterial susceptibility testing was performed according to the ISO 10932/IDF 233 standard (ISO, 2010). […] Typically, a twofold serial dilution of stock solutions was performed in Lactobacilli MRS broth to obtain solutions in the 0.2–100 µM concentration range. Bacterial inocula were prepared by suspending colonies, from 24 h incubated Lactobacilli MRS agar plates, into 2 mL of 0.85% NaCl solution. […] MIC values were estimated after incubating the plates under anaerobic conditions at 37 °C for 48 h.

[3] = test system: L. fermentum ATCC 14931; experiment: as above; format: cell-based, Lactobacillus fermentum; conditions: Limosilactobacillus fermentum
Method: as §2

[4] = test system: L. acidophilus ATCC 4356; experiment: as above; format: cell-based; conditions: Lactobacillus acidophilus
Method: as §2

[5] = test system: L. rhamnosus ATCC 7469; experiment: as above; format: cell-based, Lactobacillus rhamnosus; conditions: Lacticaseibacillus rhamnosus
Method: as §2

[6] = test system: Escherichia coli ATCC 25922; format: cell-based
Method: The Minimum Bactericidal Concentration (MBC) was determined from the broth dilution of MIC tests by subculturing cell mixtures on agar plates. The MBC was defined as the lowest concentration of antibacterial agent that kills ≥ 99.9% of bacterial cells. According to a widely accepted criterion, peptides were considered bactericidal if their MBC was no more than four times the MIC.

[7] = test system: Escherichia coli ATCC 25922; format: cell-based; remark: listed apart in the source
Method: as §1

[8] = test system: Salmonella typhimurium ATCC 14028; format: cell-based
Method: as §1

[9] = test system: Acinetobacter baumanii ATCC 17878; format: cell-based; conditions: control antibiotic; broth microdilution, Nutrient Broth 0.5×, overnight 37 °C
Method: as §1

[10] = test system: Salmonella enteritidis 706 RIVM; format: cell-based; conditions: control antibiotic; broth microdilution, Nutrient Broth 0.5×, overnight 37 °C
Method: as §1

[11] = test system: Pseudomonas aeruginosa PAO1; format: cell-based; conditions: control antibiotic; broth microdilution, Nutrient Broth 0.5×, overnight 37 °C
Method: as §1

[12] = test system: selected Gram-positive and Gram-negative strains; experiment: Antimicrobial activity of mucosal peptides on selected strains; format: cell-based; conditions: summary of Table 3
Method: as §1, with “The peptide antibiotic polymyxin B and vancomycin (Sigma, St. Louis, MO) were tested as control.” left out

[13] = control antibiotic, broth microdilution, Nutrient Broth 0.5×, overnight 37 °C

CN[C@H](CC(C)C)C(=O)N[C@H]1C(=O)N[C@@H](CC(N)=O)C(=O)N[C@H]2C(=O)N[C@H]3C(=O)N[C@H](C(=O)N[C@H](C(=O)O)c4cc(O)cc(O)c4-c4cc3ccc4O)[C@H](O)c3ccc(c(Cl)c3)Oc3cc2cc(c3O[C@@H]2O[C@H](CO)[C@@H](O)[C@H](O)[C@H]2O[C@H]2C[C@](C)(N)[C@H](O)[C@H](C)O2)Oc2ccc(cc2Cl)[C@H]1O [Vancomycin, vancomycin]
MIC ([1]; Enterococcus faecalis, ATCC29212): 2 µg/mL
MIC ([2]; ATCC393, 48 h): > 100 µM
MIC ([3]; ATCC14931, 48 h): > 100 µM
MIC ([4]; ATCC4356, 48 h): > 100 µM
MIC ([5]; ATCC7469, 48 h): > 100 µM

CC[C@H]1OC(=O)[C@H](C)[C@@H](O[C@H]2C[C@@](C)(OC)[C@@H](O)[C@H](C)O2)[C@H](C)[C@@H](O[C@@H]2O[C@H](C)C[C@H](N(C)C)[C@H]2O)[C@](C)(O)C[C@@H](C)C(=O)[C@H](C)[C@@H](O)[C@]1(C)O [Erythromycin]
MIC ([2]; ATCC393, Lactobacilli MRS broth, 3–8 × 10^5 CFU/mL, anaerobic, 37 °C, 48 h, 0.2–100 µM range, read-out: MIC): 2.8 µM (≈ 2.06 µg/mL)
MIC ([3]; ATCC14931, Lactobacilli MRS broth, 3–8 × 10^5 CFU/mL, anaerobic, 37 °C, 48 h, 0.2–100 µM range, read-out: MIC): 1.4 µM (≈ 1.03 µg/mL)
MIC ([4]; ATCC4356, Lactobacilli MRS broth, 3–8 × 10^5 CFU/mL, anaerobic, 37 °C, 48 h, 0.2–100 µM range, read-out: MIC): 0.7 µM (≈ 0.514 µg/mL)
MIC ([5]; ATCC7469, Lactobacilli MRS broth, 3–8 × 10^5 CFU/mL, anaerobic, 37 °C, 48 h, 0.2–100 µM range, read-out: MIC): 0.7 µM (≈ 0.514 µg/mL)

LKNARIVGELTGFRPVRPQVRLE [LKN]
MBC [6]: 50 µM
MIC ([1]; ATCC 29212): > 200 µM
MIC ([7]; ATCC 25922): 50 µM
MIC ([8]; ATCC 14028): > 200 µM

CC[C@H](C)CCCCC(=O)N[C@@H](CCN)C(=O)N[C@H](C(=O)N[C@@H](CCN)C(=O)N[C@H]1CCNC(=O)[C@H]([C@@H](C)O)NC(=O)[C@H](CCN)NC(=O)[C@H](CCN)NC(=O)[C@H](CC(C)C)NC(=O)[C@@H](Cc2ccccc2)NC(=O)[C@H](CCN)NC1=O)[C@@H](C)O [Polymyxin B, polymyxin B] (X1-[Dab]T[Dab][Dab][Dab][dF]L[Dab][Dab]T; lactam 4-C (inferred); N-terminus assumed)
MIC [7, 13]: 0.5 µg/mL
MIC [9]: 0.5 µg/mL (≈ 0.415 µM)
MIC [10]: 0.5 µg/mL (≈ 0.415 µM)
MIC [8, 13]: 0.12 µg/mL
MIC [11]: 0.25 µg/mL (≈ 0.208 µM)

EAANLFGKILEEKKLSRLPPSHL [EAA]
antibacterial activity (in words) [12]: did not show any antibacterial activity
MIC ([1]; ATCC 29212): > 200 µM
MIC ([8]; ATCC 14028): > 200 µM
